“Also recorded” adds a separate entry of the source.
Assays:
opioid receptors = conditions: cited from earlier work
[1] = oral; dosage form that models extended release
[2] = Tail flick test, intra-gastric, intra-ileal and intra-colonic butorphanol; assay type: in vivo
Text: FIG. 13: Time-effect curves depicting antinociceptive effect of intra-gastric, intra-ileal and intra-colonic butorphanol in the tail flick test. The percent maximum possible effect (% MPE) is plotted versus time.
FIG. 14: Time-effect curves depicting antinociceptive effect of intra-gastric, intra-ileal and intra-colonic butorphanol in the tail flick test. The percent maximum possible effect (% MPE) is plotted versus time.

[3] = test system: streptozotocin (STZ) induced diabetes neuropathy; experiment: Streptozotocin induced diabetic neuropathy, cold allodynia (acetone drop test); assay type: in vivo, Wistar rats; conditions: STZ diabetic neuropathic rats
Procedure: The aim of this study was to evaluate the effect of oral administration of butorphanol in rats with streptozotocin (STZ) induced diabetes neuropathy. A single injection of streptozotocin (STZ) (40-70 mg/kg, i.p.) was used to induce diabetes in rats. The primary measurements were made mechanical and thermal allodynia designed to detect effects of the treatment(s) on neuropathic pain.
(§1) Wistar rats weighing 250±20 g were maintained on standard laboratory diet and having free access to tap water ad lib were employed in the present study. They were housed in the animal house and were exposed to 12 hr cycle of light and dark. The experiments were conducted in a semi-sound proof laboratory. Care of the animals was in accordance with guidelines for experimentation on animals.
The STZ-induced diabetes model was adapted from Arison et al (1967).
On the experimental day 1 all rats were fasted 6-8 hrs prior to STZ treatment Immediately prior to the injection, STZ was dissolved in 50 Mm sodium citrate buffer (pH 4.5) to a final concentration of 10 mg/ml. […]
For the assessment of cold allodynia, which was stable for 3 weeks, the rats were placed on a wire mesh covered with a plastic dome and were allowed to habituate until the exploratory behavior diminished. Cold allodynia was measured as the number of foot withdrawal responses after application of stimuli to the plantar surface of the paw. […] Acetone was applied two times (once every 5 min) on the left paw, and the number of reactions (shaking, tapping, or licking) was counted during 30 sec. […] The score was expressed as accumulated numbers of reactions over the trials and determined before and 30 and 60 min after administration of the test drugs. Each individual test was expressed as a percentage of maximum possible effect (% MPE): […]
MPE (%) at 30 min time point was employed as a quantitative measure of the analgesic effect of the test drugs.
The anti-nociceptive effect was plotted assessed having time (relative to dosing time point) on the x-axis and percent maximum possible effect (% MPE) on the y-axis. […]

[4] = test system: vincristine induced painful neuropathy; experiment: Vincristine induced painful neuropathy, mechanical allodynia (von Frey filaments); assay type: in vivo, Wistar rats; conditions: vincristine neuropathic rats
Text: The aim of this study was to evaluate the effect of oral administration of butorphanol in rats with vincristine induced painful neuropathy. The primary measurements were made mechanical and thermal allodynia designed to detect effects of the treatment(s) on neuropathic pain.
as §1
The vincristine model was adapted from Authier et al (1999). Rats were injected on five alternate days (day 4, 6, 8, 10 & 12) with vincristine (200 μg/kg i.p.) using an injection volume of 2 ml/kg. […]
Mechano-allodynia was assessed using von Frey filaments. […] Both hind paws were tested for allodynia and the average of the two was recorded as data. Results were expressed in grams and determined before and 30 and 60 min after the administration of the test drugs.
The anti-nociceptive effect was plotted assessed having time (relative to dosing time point) on the x-axis and percent maximum possible effect (% MPE) on the y-axis. The results were expressed as mean±standard error of means (S.E.M.). […]

[5] = cited from earlier work

Structure (SMILES): Oc1ccc2c(c1)[C@@]13CCCC[C@@]1(O)[C@@H](C2)N(CC1CCC1)CC3 [butorphanol, (−)17-(Cyclobutylmethyl)morphinan-3,14-diol]
- activity at opioid receptors (opioid receptors): partial agonist
- therapeutic effect [1]: robust therapeutic effects
- antinociceptive effect, position of the % MPE time-effect curve ([2]; intra-colonic): Top curve
- antinociceptive effect, position of the % MPE time-effect curve ([2]; intra-gastric): bottom curve
- antinociceptive effect, position of the % MPE time-effect curve ([2]; intra-ileal): second from top curve
- cold allodynia score ([3]; oral 1, 3, 10, 30 mg/kg, FIG. 20): dose dependent decrease
- cold allodynia withdrawal threshold in comparison to the control readings ([3]; oral): significant increase
- time of peak effect post-administration (cold allodynia) ([3]; oral): 30 min
- mechanical withdrawal threshold ([4]; oral 1, 3, 10, 30 mg/kg, FIG. 15): dose dependent increase; also recorded: significant increase
- time of peak effect post-administration (mechanical allodynia) ([4]; oral): 30 min
- mean half-life ([5]; in vivo): about 5 hours
- oral bioavailability ([5]; widely reported): poor

— patent publication US10624887B2, “Compositions of (-)-17-(cyclobutylmethyl)morphinan-3,14,-diol” (priority 2010, dated 2020)
